The supplement of paper PMC11451515

Test system: NOMO1
Experiment: cell viability relative to DMSO control; higher = less cytotoxic
Details: 48 h
Outline: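 In 1536-well plates, 5 μl of leukemia cells were seeded per well: 500 cells/well for NOMO1 or SEM and 1000 cells/well for P12-Ichikawa. Each line had first been adapted for at least four passages in each medium. Library compounds in DMSO were pin-dosed at 11 threefold concentrations between 47 μM and 0.79 nM, and CellTiter-Glo One luminescence was read after 48 h at 37°C. Viability is a per-plate percentage relative to DMSO wells, with cell-free wells as background.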

[1] = HPLM + 10% dialyzed FBS, 0.000781 µM
[2] = HPLM + 10% dialyzed FBS, 0.00234 µM
[3] = HPLM + 10% dialyzed FBS, 0.00702 µM
[4] = HPLM + 10% dialyzed FBS, 0.0211 µM
[5] = HPLM + 10% dialyzed FBS, 0.0632 µM
[6] = HPLM + 10% dialyzed FBS, 0.19 µM
[7] = HPLM + 10% dialyzed FBS, 0.569 µM
[8] = HPLM + 10% dialyzed FBS, 1.71 µM
[9] = HPLM + 10% dialyzed FBS, 5.12 µM
[10] = HPLM + 10% dialyzed FBS, 15.4 µM
[11] = HPLM + 10% dialyzed FBS, 46.1 µM
[12] = RPMI 5 mM glucose + 10% FBS, 0.000781 µM
[13] = RPMI 5 mM glucose + 10% FBS, 0.00234 µM
[14] = RPMI 5 mM glucose + 10% FBS, 0.00702 µM
[15] = RPMI 5 mM glucose + 10% FBS, 0.0211 µM
[16] = RPMI 5 mM glucose + 10% FBS, 0.0632 µM
[17] = RPMI 5 mM glucose + 10% FBS, 0.19 µM
[18] = RPMI 5 mM glucose + 10% FBS, 0.569 µM
[19] = RPMI 5 mM glucose + 10% FBS, 1.71 µM
[20] = RPMI 5 mM glucose + 10% FBS, 5.12 µM
[21] = RPMI 5 mM glucose + 10% FBS, 15.4 µM
[22] = RPMI 5 mM glucose + 10% FBS, 46.1 µM
[23] = RPMI 5 mM glucose + 10% dialyzed FBS, 0.000781 µM
[24] = RPMI 5 mM glucose + 10% dialyzed FBS, 0.00234 µM
[25] = RPMI 5 mM glucose + 10% dialyzed FBS, 0.00702 µM
[26] = RPMI 5 mM glucose + 10% dialyzed FBS, 0.0211 µM
[27] = RPMI 5 mM glucose + 10% dialyzed FBS, 0.0632 µM
[28] = RPMI 5 mM glucose + 10% dialyzed FBS, 0.19 µM
[29] = RPMI 5 mM glucose + 10% dialyzed FBS, 0.569 µM
[30] = RPMI 5 mM glucose + 10% dialyzed FBS, 1.71 µM
[31] = RPMI 5 mM glucose + 10% dialyzed FBS, 5.12 µM
[32] = RPMI 5 mM glucose + 10% dialyzed FBS, 15.4 µM
[33] = RPMI 5 mM glucose + 10% dialyzed FBS, 46.1 µM

SMILES: C[C@]12CCC(=O)C=C1CC[C@@H]1[C@@H]2[C@@H](O)C[C@@]2(C)[C@H]1CC[C@]2(O)C(=O)CO
- cell viability [1]: 99%
- cell viability [2]: 109%
- cell viability [3]: 121%
- cell viability [4]: 127%
- cell viability [5]: 117%
- cell viability [6]: 125%
- cell viability [7]: 120%
- cell viability [8]: 115%
- cell viability [9]: 102%
- cell viability [10]: 121%
- cell viability [11]: 109%
- cell viability [12]: 110%
- cell viability [13]: 98.3%
- cell viability [14]: 108%
- cell viability [15]: 112%
- cell viability [16]: 100%
- cell viability [17]: 129%
- cell viability [18]: 129%
- cell viability [19]: 111%
- cell viability [20]: 111%
- cell viability [21]: 105%
- cell viability [22]: 120%
- cell viability [23]: 119%
- cell viability [24]: 111%
- cell viability [25]: 106%
- cell viability [26]: 118%
- cell viability [27]: 116%
- cell viability [28]: 113%
- cell viability [29]: 130%
- cell viability [30]: 125%
- cell viability [31]: 118%
- cell viability [32]: 116%
- cell viability [33]: 127%

SMILES: COC(=O)Nc1cc(Nc2cc(NC3CC3)c3ncc(C#N)n3n2)c(Cl)c(N2CCN(C)CC2)c1
- cell viability [1]: 117%
- cell viability [2]: 114%
- cell viability [3]: 104%
- cell viability [4]: 107%
- cell viability [5]: 108%
- cell viability [6]: 112%
- cell viability [7]: 93.7%
- cell viability [8]: 86.7%
- cell viability [9]: 64.5%
- cell viability [10]: 45.6%
- cell viability [11]: 4.67%
- cell viability [12]: 88.7%
- cell viability [13]: 112%
- cell viability [14]: 108%
- cell viability [15]: 110%
- cell viability [16]: 93.3%
- cell viability [17]: 110%
- cell viability [18]: 84.5%
- cell viability [19]: 89.7%
- cell viability [20]: 57.6%
- cell viability [21]: 30.1%
- cell viability [22]: 4.34%
- cell viability [23]: 104%
- cell viability [24]: 98.2%
- cell viability [25]: 99.4%
- cell viability [26]: 94.3%
- cell viability [27]: 93%
- cell viability [28]: 106%
- cell viability [29]: 85.3%
- cell viability [30]: 66.9%
- cell viability [31]: 45.1%
- cell viability [32]: 34.5%
- cell viability [33]: 3.22%

SMILES: CCN1CCN(CC1)CC(=O)NC2=CC=C(C3=C2C4=C(S3)C=CC=C4)C5=C6O\C(=C/C(=O)C6=CC=C5)N7CCOCC7
- cell viability [1]: 108%
- cell viability [2]: 121%
- cell viability [3]: 122%
- cell viability [4]: 123%
- cell viability [5]: 117%
- cell viability [6]: 124%
- cell viability [7]: 121%
- cell viability [8]: 94.2%
- cell viability [9]: 79.7%
- cell viability [10]: 63.6%
- cell viability [11]: 75.3%
- cell viability [12]: 116%
- cell viability [13]: 115%
- cell viability [14]: 123%
- cell viability [15]: 120%
- cell viability [16]: 128%
- cell viability [17]: 129%
- cell viability [18]: 130%
- cell viability [19]: 120%
- cell viability [20]: 98%
- cell viability [21]: 74.5%
- cell viability [22]: 86.1%
- cell viability [23]: 120%
- cell viability [24]: 120%
- cell viability [25]: 131%
- cell viability [26]: 118%
- cell viability [27]: 128%
- cell viability [28]: 128%
- cell viability [29]: 109%
- cell viability [30]: 110%
- cell viability [31]: 77.8%
- cell viability [32]: 64.3%
- cell viability [33]: 99.1%

SMILES: CN(C)[S+](=O)([O-])c1ccc2c(c1)C(=Cc1cc3c([nH]1)CCCC3)C(=O)N2
- cell viability [1]: 124%
- cell viability [2]: 141%
- cell viability [3]: 122%
- cell viability [4]: 128%
- cell viability [5]: 130%
- cell viability [6]: 122%
- cell viability [7]: 122%
- cell viability [8]: 146%
- cell viability [9]: 120%
- cell viability [10]: 127%
- cell viability [11]: 118%
- cell viability [12]: 125%
- cell viability [13]: 112%
- cell viability [14]: 121%
- cell viability [15]: 115%
- cell viability [16]: 109%
- cell viability [17]: 115%
- cell viability [18]: 123%
- cell viability [19]: 111%
- cell viability [20]: 113%
- cell viability [21]: 108%
- cell viability [22]: 105%

SMILES: Nc1ncnc2c1ncn2[C@@H]1O[C@@H](CO)[C@H](O)[C@@H]1O
- cell viability [1]: 94.2%
- cell viability [2]: 125%
- cell viability [3]: 117%
- cell viability [4]: 140%
- cell viability [5]: 142%
- cell viability [6]: 134%
- cell viability [7]: 144%
- cell viability [8]: 156%
- cell viability [9]: 139%
- cell viability [10]: 140%
- cell viability [11]: 136%
- cell viability [23]: 122%
- cell viability [24]: 121%
- cell viability [25]: 122%
- cell viability [26]: 127%
- cell viability [27]: 135%
- cell viability [28]: 136%
- cell viability [29]: 133%
- cell viability [30]: 135%
- cell viability [31]: 127%
- cell viability [32]: 155%
- cell viability [33]: 137%

SMILES: COC\1=C(/OC)C(=O)\C(=C(C)/C1=O)CCCCCCCCCCO
- cell viability [1]: 97.4%
- cell viability [2]: 132%
- cell viability [3]: 118%
- cell viability [4]: 148%
- cell viability [5]: 114%
- cell viability [6]: 134%
- cell viability [7]: 153%
- cell viability [8]: 154%
- cell viability [9]: 148%
- cell viability [10]: 122%
- cell viability [11]: 61.6%

SMILES: CNc1nc(Nc2ccc(C(=O)N3CCOCC3)cc2OC)ncc1Cl
- cell viability [12]: 103%
- cell viability [13]: 121%
- cell viability [14]: 119%
- cell viability [15]: 109%
- cell viability [16]: 106%
- cell viability [17]: 114%
- cell viability [18]: 111%
- cell viability [19]: 112%
- cell viability [20]: 99.8%
- cell viability [21]: 106%
- cell viability [22]: 90.9%

SMILES: CC[C@H](NC1=C2N=C[NH]C2=NC=N1)C/3=N/C4=C(C(=CC=C4)F)C(=O)N3C5=CC=CC=C5
- cell viability [12]: 116%
- cell viability [13]: 119%
- cell viability [14]: 139%
- cell viability [15]: 122%
- cell viability [16]: 125%
- cell viability [17]: 116%
- cell viability [18]: 113%
- cell viability [19]: 113%
- cell viability [20]: 111%
- cell viability [21]: 107%
- cell viability [22]: 76.9%
- cell viability [23]: 125%
- cell viability [24]: 121%
- cell viability [25]: 123%
- cell viability [26]: 125%
- cell viability [27]: 133%
- cell viability [28]: 110%
- cell viability [29]: 117%
- cell viability [30]: 114%
- cell viability [31]: 100%
- cell viability [32]: 82.2%
- cell viability [33]: 57%

SMILES: N#CCNC(=O)c1ccc(-c2ccnc(Nc3ccc(N4CCOCC4)cc3)n2)cc1
- cell viability [1]: 109%
- cell viability [2]: 115%
- cell viability [3]: 116%
- cell viability [4]: 134%
- cell viability [5]: 128%
- cell viability [6]: 117%
- cell viability [7]: 115%
- cell viability [8]: 105%
- cell viability [9]: 124%
- cell viability [10]: 87.3%
- cell viability [11]: 8.36%
- cell viability [12]: 88.7%
- cell viability [13]: 116%
- cell viability [14]: 101%
- cell viability [15]: 113%
- cell viability [16]: 107%
- cell viability [17]: 106%
- cell viability [18]: 106%
- cell viability [19]: 89.5%
- cell viability [20]: 102%
- cell viability [21]: 86%
- cell viability [22]: 11.3%
- cell viability [23]: 48.6%
- cell viability [24]: 105%
- cell viability [25]: 129%
- cell viability [26]: 113%
- cell viability [27]: 120%
- cell viability [28]: 110%
- cell viability [29]: 99.7%
- cell viability [30]: 90.8%
- cell viability [31]: 114%
- cell viability [32]: 85.6%
- cell viability [33]: 10.8%

SMILES: Cc1cnn(C)c1C(=O)Nc1cc(Nc2ccc3c(/C=C/c4ccccn4)n[nH]c3c2)ccc1F
- cell viability [1]: 119%
- cell viability [2]: 125%
- cell viability [3]: 124%
- cell viability [4]: 141%
- cell viability [5]: 129%
- cell viability [6]: 113%
- cell viability [7]: 143%
- cell viability [8]: 120%
- cell viability [9]: 102%
- cell viability [10]: 70.4%
- cell viability [11]: 12.9%
